Measurements: US20260091086A1, “POLYPEPTIDE COMBINATIONS AND USES THEREOF” (MEDIMMUNE LIMITED, priority 2024, published 2026)
Numbered stars: 1 amine (or outer) side, 2 acyl side, 3 side chain; on linkers, the order of the positions; unused ones are H or OH. Square brackets hold non-standard residues; d marks the D form. Side chains are listed from the residue outwards. Ends that are not written are not given here. * marks the point of attachment. C18 diacid = O=C(O)CCCCCCCCCCCCCCCCC(=O)*; γGlu = O=C(O)[C@H](CCC(=O)[*:2])N[*:1]; αMeF = C[C@](N)(Cc1ccccc1)C(=O)O; AEEA = NCCOCCOCC(=O)O; Aib = CC(C)(N)C(=O)O

Tests used:
AMY3R/CTR [1] = assay: Relative potency ratio, cAMP accumulation assays with 0.1% BSA, human receptors; assay type: cell-based; conditions: 0.1% bovine serum albumin, n ≥ 5; potencies relative to pramlintide 100%
AMY3R/CTR [2] = assay: Relative potency ratio, cAMP accumulation assays with 0.1% BSA, rat receptors; assay type: cell-based; conditions: 0.1% bovine serum albumin, n ≥ 5; potencies relative to pramlintide 100%
Protocol: Target engagement was estimated in the following way for each compound. The maximum concentration (Cmax) after subcutaneous injection was measured in separate rat pharmacokinetic studies and was dose-adjusted to the tested dose levels when appropriate, assuming dose linearity. Plasma protein binding was determined in vitro using 3B Pharmaceutical's Escalate Equilibrium Shift Assay or an in-house Surface Plasmon Resonance (SPR) assay. Peptide in vitro potency was determined via HTRF CAMP accumulation assay using HEK293 cells recombinantly expressing the rat calcitonin receptor or rat amylin receptor (calcitonin receptor plus RAMP3) in saline buffer containing 0.1% bovine serum albumin. The in vitro potencies (IC50s) for amylin and calcitonin were adjusted to unbound values by taking into account the albumin concentration in the assay and fraction unbound data, according to an established method (Wan H and Bergström F (2007), High Throughput Screening of Drug-Protein Binding in Drug Discovery, Journal of Liquid Chromatography & Related Technologies, 30:5, 681-700; doi: 10.1080/10826070701190989). Finally, the target engagement was calculated as the unbound Cmax divided by the unbound IC50, both for amylin and calcitonin. The Emax model was defined as aversion=E0+Emax×(ENG^h/(ENG^h+ED50^h)), where E0 is the baseline aversion, Emax is the maximum induced aversion, ENG is the receptor engagement, and h is the slope (Hill) parameter. Parameter estimation was performed according to a maximum likelihood approach with an additive error model, incorporating data from all compounds simultaneously. Uncertainty of parameter estimates was determined by bootstrapping, sampling single measurements randomly with replacement within each experiment (N=500). Numeric analyses were performed in MATLAB (R2023b; The MathWorks, Natick, MA). The aversion data are given as mean and standard error (N=9-11 per group). In this experiment, the LAA/SARA1 was that of SEQ ID NO: 11, SARA2 was eloralintide, DACRA1 was cagrilintide, and DACRA2 was petrelintide.

[3] = molecular target: rat amylin receptor (calcitonin receptor plus RAMP3) (rat) (UniProt P32214); assay: cell-based or functional assay
[4] = molecular target: human amylin receptor 3 (hAMY3R; complex of hCTR and hRAMP3) (human); assay: cell-based or functional assay
Wistar Han rats = assay: Example 4: 3-month subcutaneous study, body weight; assay type: in vivo, rat; conditions: for Body Weight Comparison, Day 92 vs. Control Group 1 Day 92 / Body Weight Gain (Day 92 vs Day −1) / Mean Body Weight at Day 92: dose levels 0/5, Group 5
Protocol: Study Design: Male (9-11 weeks of age) and female (10-11 weeks of age) Wistar Han rats were SC administered with Vehicle/Vehicle (group 1—for LAA of SEQ ID NO: 11 and GLP-1/GCG of SEQ ID NO: 35), LAA of SEQ ID NO: 11 and GLP-1/GCG of SEQ ID NO: 35 (group 2—500 and 5 μg/kg respectively), LAA of SEQ ID NO: 11 and GLP-1/GCG of SEQ ID NO: 35 (group 3—2000 and 5 μg/kg respectively), SEQ ID NO: 11 and Vehicle for SEQ ID NO: 35 (group 4—2000 μg/kg and 0 μg/kg respectively), or Vehicle for SEQ ID NO: 11 and SEQ ID NO: 35 (group 5—0 and 5 μg/kg respectively) daily for 91 days. Dosing for LAA of SEQ ID NO: 11 was dose escalated with group 2 receiving 250 μg/kg from day 1-5 and 500 μg/kg for duration of study, and groups 3 and 4 receiving 250 μg/kg SEQ ID NO: 11 from day 1-5, 500 μg/kg SEQ ID NO: 11 from days 7-13 and 2000 μg/kg for duration of study. There was a n=10/group per gender.

DIO rats = assay: Example 7: 28-day LAA and GLP/GIP dual agonist study; assay type: in vivo, rat; conditions: for body weight change: day 28
Protocol: Study Design: Male rats were fed a high-fat diet (45% kcal fat-D12451; Research Diets) or chow control matched diet (10% kcal fat-D12450K; […] Control rats were dosed SC with Vehicle. Body weight was monitored daily through-out study and body composition measured by EchoMRI at baseline (week-1) and end of study (week 4). […]

[5] = GLP/GIP mono-treatment 2 nmol/kg
[6] = GLP/GIP mono-treatment 30 nmol/kg

human amylin receptor 3 (hAMY3R; complex of hCTR and hRAMP3) (human), sequence (chain, as listed by the source limits assumed, chain 1 of 2): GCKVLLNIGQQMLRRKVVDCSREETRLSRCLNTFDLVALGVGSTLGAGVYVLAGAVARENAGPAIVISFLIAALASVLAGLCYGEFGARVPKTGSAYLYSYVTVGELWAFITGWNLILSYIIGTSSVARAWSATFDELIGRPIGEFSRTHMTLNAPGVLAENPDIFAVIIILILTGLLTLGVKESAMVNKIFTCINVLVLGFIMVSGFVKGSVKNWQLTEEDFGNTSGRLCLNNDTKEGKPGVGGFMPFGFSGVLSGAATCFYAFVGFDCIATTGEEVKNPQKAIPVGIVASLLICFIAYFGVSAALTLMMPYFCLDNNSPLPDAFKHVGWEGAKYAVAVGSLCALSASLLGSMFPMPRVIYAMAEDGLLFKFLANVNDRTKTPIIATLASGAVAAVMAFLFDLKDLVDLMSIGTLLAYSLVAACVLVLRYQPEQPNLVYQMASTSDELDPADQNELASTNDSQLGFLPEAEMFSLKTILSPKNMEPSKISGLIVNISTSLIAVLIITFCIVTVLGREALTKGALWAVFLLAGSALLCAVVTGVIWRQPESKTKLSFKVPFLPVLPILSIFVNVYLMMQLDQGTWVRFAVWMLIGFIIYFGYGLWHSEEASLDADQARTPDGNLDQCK
human amylin receptor 3 (hAMY3R; complex of hCTR and hRAMP3) (human), sequence (chain, as listed by the source limits assumed, chain 2 of 2): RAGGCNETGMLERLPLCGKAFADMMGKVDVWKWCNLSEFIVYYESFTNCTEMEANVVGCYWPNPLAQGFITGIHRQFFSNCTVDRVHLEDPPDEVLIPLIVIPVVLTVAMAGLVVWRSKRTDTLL
rat amylin receptor (calcitonin receptor plus RAMP3) (rat), sequence (P32214 25-516, chain 1 of 2): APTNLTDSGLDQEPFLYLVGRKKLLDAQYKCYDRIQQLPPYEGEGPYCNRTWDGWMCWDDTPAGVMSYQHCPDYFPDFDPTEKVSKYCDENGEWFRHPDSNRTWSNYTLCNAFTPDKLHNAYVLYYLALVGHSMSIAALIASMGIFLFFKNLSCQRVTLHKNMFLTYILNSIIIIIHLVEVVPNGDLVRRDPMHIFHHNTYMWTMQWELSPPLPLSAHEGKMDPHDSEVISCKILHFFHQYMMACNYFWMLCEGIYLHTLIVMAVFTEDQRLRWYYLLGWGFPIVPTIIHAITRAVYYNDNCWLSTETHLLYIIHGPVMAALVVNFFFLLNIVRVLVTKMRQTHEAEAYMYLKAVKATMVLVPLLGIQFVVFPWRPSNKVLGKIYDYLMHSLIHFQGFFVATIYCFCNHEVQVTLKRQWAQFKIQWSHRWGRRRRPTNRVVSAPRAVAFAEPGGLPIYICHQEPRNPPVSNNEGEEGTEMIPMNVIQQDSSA
rat amylin receptor (calcitonin receptor plus RAMP3) (rat), sequence (Q9JJ73 23-147, chain 2 of 2, further chain): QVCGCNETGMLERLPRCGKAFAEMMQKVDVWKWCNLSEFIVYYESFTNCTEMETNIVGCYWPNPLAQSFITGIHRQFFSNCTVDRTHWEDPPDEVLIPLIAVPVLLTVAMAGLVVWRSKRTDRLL

Row | Molecule | Relative potency ratio (AMY3R/CTR), Human (AMY3R/CTR [1]) | Relative potency ratio (AMY3R/CTR), Rat (AMY3R/CTR [2]) | Relative potency ratio (AMY3R/CTR), Rat; cAMP accumulation assay, 0.1% BSA [3] | Relative potency ratio (AMY3R/CTR), Human; cAMP accumulation assay, 0.1% BSA [4] | also measured
1 | CC[C@H](C)[C@H](NC(=O)[C@@H]1CCCN1C(=O)CNC(=O)[C@H](Cc1ccccc1)NC(=O)[C@H](CC(N)=O)NC(=O)[C@H](CC(N)=O)NC(=O)[C@H](CO)NC(=O)[C@H](CO)NC(=O)[C@H](Cc1c[nH]cn1)NC(=O)[C@@H](NC(=O)[C@H](CC(C)C)NC(=O)[C@H](Cc1ccccc1)NC(=O)[C@H](CC(N)=O)NC(=O)[C@H](C)NC(=O)[C@H](CC(C)C)NC(=O)[C@H](CCCNC(=N)N)NC(=O)[C@H](CCC(N)=O)NC(=O)[C@@H](NC(=O)[C@H](C)NC(=O)[C@@H]1CSSC[C@H](NC(=O)[C@@H](N)CCCCN)C(=O)N[C@@H](CC(N)=O)C(=O)N[C@@H]([C@@H](C)O)C(=O)N[C@@H](C)C(=O)N[C@@H]([C@@H](C)O)C(=O)N1)[C@@H](C)O)C(C)C)C(=O)N[C@@H](CC(C)C)C(=O)N1CCC[C@H]1C(=O)N1CCC[C@H]1C(=O)N[C@H](C(=O)N[C@@H](CC(N)=O)C(=O)N[C@H](C(=O)NCC(=O)N[C@@H](CO)C(=O)N[C@@H](CC(N)=O)C(=O)N[C@H](C(=O)N[C@@H](Cc1ccc(O)cc1)C(N)=O)[C@@H](C)O)C(C)C)[C@@H](C)O [Pramlintide] | 1.0 | 1.0 |  |  | 
2 | DACRA 1 (cagrilintide) (peptide) |  |  | 0.01 | 0.08 | 
3 | DACRA 2 (petrelintide) (peptide) |  |  | 0.03 | 0.05 | 
4 | H(Aib)QGTFTSDVSK(αMePhe)LDTK(O2Oc-O2Oc-γE-C18diacid)RARDFVQWLLE(Aib)G-acid (H[Aib]QGTFTSDVSK[αMeF]LDTK([AEEA-AEEA-γGlu-C18 diacid])RARDFVQWLLE[Aib]G-OH; N-terminus assumed; SMILES CC(C)C[C@H](NC(=O)[C@H](Cc1c[nH]c2ccccc12)NC(=O)[C@H](CCC(N)=O)NC(=O)[C@@H](NC(=O)[C@H](Cc1ccccc1)NC(=O)[C@H](CC(=O)O)NC(=O)[C@H](CCCNC(=N)N)NC(=O)[C@H](C)NC(=O)[C@H](CCCNC(=N)N)NC(=O)[C@H](CCCCNC(=O)COCCOCCNC(=O)COCCOCCNC(=O)CC[C@H](NC(=O)CCCCCCCCCCCCCCCCC(=O)O)C(=O)O)NC(=O)[C@@H](NC(=O)[C@H](CC(=O)O)NC(=O)[C@H](CC(C)C)NC(=O)[C@](C)(Cc1ccccc1)NC(=O)[C@H](CCCCN)NC(=O)[C@H](CO)NC(=O)[C@@H](NC(=O)[C@H](CC(=O)O)NC(=O)[C@H](CO)NC(=O)[C@@H](NC(=O)[C@H](Cc1ccccc1)NC(=O)[C@@H](NC(=O)CNC(=O)[C@H](CCC(N)=O)NC(=O)C(C)(C)NC(=O)[C@@H](N)Cc1c[nH]cn1)[C@@H](C)O)[C@@H](C)O)C(C)C)[C@@H](C)O)C(C)C)C(=O)N[C@@H](CC(C)C)C(=O)N[C@@H](CCC(=O)O)C(=O)NC(C)(C)C(=O)NCC(=O)O) [GLP-1/GCG of SEQ ID NO: 35] |  |  |  |  | Body weight at study day 92 vs Vehicle (Wistar Han rats; both male and female, groups 2-5): significantly lower; Body Weight Comparison, Day 92 vs. Control Group 1 Day 92 (Wistar Han rats; female): 90%; Body Weight Gain (Day 92 vs Day −1) (Wistar Han rats; female): 112%; Mean Body Weight at Day 92 (Wistar Han rats; female): 225.4 grams; Body Weight Comparison, Day 92 vs. Control Group 1 Day 92 (Wistar Han rats; male): 80%; Body Weight Gain (Day 92 vs Day −1) (Wistar Han rats; male): 119%; Mean Body Weight at Day 92 (Wistar Han rats; male): 325.5 grams
5 | SARA 2 (eloralintide) (peptide) |  |  | 0.14 | 0.24 | 
6 | eloralintide [SARA 2] | 0.24 | 0.14 |  |  | 
7 | hAmylin (from UniProt P10997 34-70) (peptide) |  |  | 0.9 | 1.8 | 
8 | hAmylin: human amylin, non-lipidated (KCNTATCATQRLANFLVHSSNNFGAILSSTNVGSNTY; not fully specified (C-terminus, bridges); cysteine pairing not given here) | 1.8 | 0.9 |  |  | 
9 | petrelintide [DACRA 2] | 0.05 | 0.03 |  |  | 
10 | tirzepatide [GLP/GIP] |  |  |  |  | change in lean mass (g) (DIO rats; [5]): no effect at 2 nmol/kg; change in lean mass (g) (DIO rats; [6]): significant reduction vs. vehicle; body weight change (DIO rats; [5]): −1.7%; body weight change (DIO rats; [6]): −8.9%; body weight change (DIO rats; mono-treatment 10 nmol/kg SC QD): −8.1%; change in fat mass (g) (DIO rats; end of study (week 4), EchoMRI, FIG. 6C): dose-dependent decrease in fat mass; change in lean mass (g) (DIO rats; end of study, EchoMRI, mono-treatment, FIG. 6D): dose-dependent decrease of lean mass
